{"source": "the supplement of paper PMC10307832", "assay_in_all_cases": "relative viability (nuclei count vs DMSO), 5 days (fraction); higher = more cells survive", "key": {"NCI-H2009": {"system": "NCI-H2009", "in_short": "(§1)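 Lung cancer cell lines, seeded in 1536-well plates, were treated the following day by pin tool with a single drug or with five library-drug doses (not always all listed) in √10 steps on top of a fixed anchor-drug dose. Cells were fixed and nuclei stained in one step after 5 days, and nuclei were counted. Relative viability is the nuclei count for treated wells divided by that for vehicle wells, reported as medians of duplicate plates.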"}, "NCI-H522": {"system": "NCI-H522", "in_short": "as §1"}, "NCI-H2342": {"system": "NCI-H2342", "in_short": "as §1"}, "NCI-H460": {"system": "NCI-H460", "in_short": "as §1"}, "HCC-78": {"system": "HCC-78", "in_short": "as §1"}, "NCI-H661": {"system": "NCI-H661", "in_short": "as §1"}, "NCI-H1648": {"system": "NCI-H1648", "in_short": "as §1"}}, "data": [{"smiles": "O=c1cc(N2CCOCC2)oc2c(-c3cccc4c3sc3ccccc34)cccc12", "note": "+ Nc1nc2[nH]cc(CCc3ccc(C(=O)N[C@@H](CCC(=O)O)C(=O)O)cc3)c2c(=O)[nH]1 [Pemetrexed] (partner 0.2 µM)", "values": [{"measurement": "relative viability", "setting": "NCI-H2009; first compound 0.01 µM", "result": 0.929}, {"measurement": "relative viability", "setting": "NCI-H2009; first compound 0.03162 µM", "result": 1.04}, {"measurement": "relative viability", "setting": "NCI-H2009; first compound 0.1 µM", "result": 1.01}, {"measurement": "relative viability", "setting": "NCI-H2009; first compound 0.3162 µM", "result": 1.01}, {"measurement": "relative viability", "setting": "NCI-H2009; first compound 1 µM", "result": 0.998}, {"measurement": "relative viability", "setting": "NCI-H522; first compound 0.01 µM", "result": 1.11}, {"measurement": "relative viability", "setting": "NCI-H522; first compound 0.03162 µM", "result": 1.02}, {"measurement": "relative viability", "setting": "NCI-H522; first compound 0.1 µM", "result": 1.08}, {"measurement": "relative viability", "setting": "NCI-H522; first compound 0.3162 µM", "result": 1.13}, {"measurement": "relative viability", "setting": "NCI-H522; first compound 1 µM", "result": 0.831}, {"measurement": "relative viability", "setting": "NCI-H2342; first compound 0.01 µM", "result": 0.795}, {"measurement": "relative viability", "setting": "NCI-H2342; first compound 0.03162 µM", "result": 0.753}, {"measurement": "relative viability", "setting": "NCI-H2342; first compound 0.1 µM", "result": 0.772}, {"measurement": "relative viability", "setting": "NCI-H2342; first compound 0.3162 µM", "result": 0.755}, {"measurement": "relative viability", "setting": "NCI-H2342; first compound 1 µM", "result": 0.784}, {"measurement": "relative viability", "setting": "NCI-H460; first compound 0.01 µM", "result": 0.0597}, {"measurement": "relative viability", "setting": "NCI-H460; first compound 0.03162 µM", "result": 0.0598}, {"measurement": "relative viability", "setting": "NCI-H460; first compound 0.1 µM", "result": 0.0653}, {"measurement": "relative viability", "setting": "NCI-H460; first compound 0.3162 µM", "result": 0.0653}, {"measurement": "relative viability", "setting": "NCI-H460; first compound 1 µM", "result": 0.0594}, {"measurement": "relative viability", "setting": "HCC-78; first compound 0.01 µM", "result": 0.897}, {"measurement": "relative viability", "setting": "HCC-78; first compound 0.03162 µM", "result": 0.886}, {"measurement": "relative viability", "setting": "HCC-78; first compound 0.1 µM", "result": 0.933}, {"measurement": "relative viability", "setting": "HCC-78; first compound 0.3162 µM", "result": 0.877}, {"measurement": "relative viability", "setting": "HCC-78; first compound 1 µM", "result": 0.979}, {"measurement": "relative viability", "setting": "NCI-H661; first compound 0.01 µM", "result": 0.867}, {"measurement": "relative viability", "setting": "NCI-H661; first compound 0.03162 µM", "result": 0.898}, {"measurement": "relative viability", "setting": "NCI-H661; first compound 0.1 µM", "result": 0.95}, {"measurement": "relative viability", "setting": "NCI-H661; first compound 0.3162 µM", "result": 0.925}, {"measurement": "relative viability", "setting": "NCI-H661; first compound 1 µM", "result": 0.892}, {"measurement": "relative viability", "setting": "NCI-H1648; first compound 0.03162 µM", "result": 0.681}, {"measurement": "relative viability", "setting": "NCI-H1648; first compound 0.1 µM", "result": 0.894}, {"measurement": "relative viability", "setting": "NCI-H1648; first compound 0.3162 µM", "result": 0.667}, {"measurement": "relative viability", "setting": "NCI-H1648; first compound 1 µM", "result": 0.583}]}, {"smiles": "CCN(CC)CCCCNc1ncc2cc(-c3cc(OC)cc(OC)c3)c(NC(=O)NC(C)(C)C)nc2n1", "note": "+ CC(=O)c1c(C)c2cnc(Nc3ccc(N4CCNCC4)cn3)nc2n(C2CCCC2)c1=O [Palbociclib] (partner 0.5 µM)", "values": [{"measurement": "relative viability", "setting": "NCI-H2009; first compound 0.01 µM", "result": 0.211}, {"measurement": "relative viability", "setting": "NCI-H2009; first compound 0.03162 µM", "result": 0.22}, {"measurement": "relative viability", "setting": "NCI-H2009; first compound 0.1 µM", "result": 0.234}, {"measurement": "relative viability", "setting": "NCI-H2009; first compound 0.3162 µM", "result": 0.196}, {"measurement": "relative viability", "setting": "NCI-H2009; first compound 1 µM", "result": 0.161}, {"measurement": "relative viability", "setting": "NCI-H522; first compound 0.01 µM", "result": 1.04}, {"measurement": "relative viability", "setting": "NCI-H522; first compound 0.03162 µM", "result": 1.01}, {"measurement": "relative viability", "setting": "NCI-H522; first compound 0.1 µM", "result": 0.921}, {"measurement": "relative viability", "setting": "NCI-H522; first compound 0.3162 µM", "result": 1.12}, {"measurement": "relative viability", "setting": "NCI-H522; first compound 1 µM", "result": 0.935}, {"measurement": "relative viability", "setting": "NCI-H2342; first compound 0.01 µM", "result": 0.514}, {"measurement": "relative viability", "setting": "NCI-H2342; first compound 0.03162 µM", "result": 0.514}, {"measurement": "relative viability", "setting": "NCI-H2342; first compound 0.1 µM", "result": 0.528}, {"measurement": "relative viability", "setting": "NCI-H2342; first compound 0.3162 µM", "result": 0.548}, {"measurement": "relative viability", "setting": "NCI-H2342; first compound 1 µM", "result": 0.556}, {"measurement": "relative viability", "setting": "NCI-H460; first compound 0.01 µM", "result": 0.147}, {"measurement": "relative viability", "setting": "NCI-H460; first compound 0.03162 µM", "result": 0.222}, {"measurement": "relative viability", "setting": "NCI-H460; first compound 0.1 µM", "result": 0.112}, {"measurement": "relative viability", "setting": "NCI-H460; first compound 0.3162 µM", "result": 0.165}, {"measurement": "relative viability", "setting": "NCI-H460; first compound 1 µM", "result": 0.147}, {"measurement": "relative viability", "setting": "HCC-78; first compound 0.01 µM", "result": 0.465}, {"measurement": "relative viability", "setting": "HCC-78; first compound 0.03162 µM", "result": 0.448}, {"measurement": "relative viability", "setting": "HCC-78; first compound 0.1 µM", "result": 0.525}, {"measurement": "relative viability", "setting": "HCC-78; first compound 0.3162 µM", "result": 0.45}, {"measurement": "relative viability", "setting": "HCC-78; first compound 1 µM", "result": 0.465}, {"measurement": "relative viability", "setting": "NCI-H661; first compound 0.01 µM", "result": 0.394}, {"measurement": "relative viability", "setting": "NCI-H661; first compound 0.03162 µM", "result": 0.41}, {"measurement": "relative viability", "setting": "NCI-H661; first compound 0.1 µM", "result": 0.418}, {"measurement": "relative viability", "setting": "NCI-H661; first compound 0.3162 µM", "result": 0.444}, {"measurement": "relative viability", "setting": "NCI-H661; first compound 1 µM", "result": 0.38}, {"measurement": "relative viability", "setting": "NCI-H1648; first compound 0.01 µM", "result": 0.288}, {"measurement": "relative viability", "setting": "NCI-H1648; first compound 0.03162 µM", "result": 0.292}, {"measurement": "relative viability", "setting": "NCI-H1648; first compound 0.1 µM", "result": 0.237}, {"measurement": "relative viability", "setting": "NCI-H1648; first compound 0.3162 µM", "result": 0.274}, {"measurement": "relative viability", "setting": "NCI-H1648; first compound 1 µM", "result": 0.238}]}, {"smiles": "O=c1cc(N2CCOCC2)oc2c(-c3cccc4c3sc3ccccc34)cccc12", "note": "+ CC(=O)c1c(C)c2cnc(Nc3ccc(N4CCNCC4)cn3)nc2n(C2CCCC2)c1=O [Palbociclib] (partner 0.5 µM)", "values": [{"measurement": "relative viability", "setting": "NCI-H2009; first compound 0.01 µM", "result": 0.234}, {"measurement": "relative viability", "setting": "NCI-H2009; first compound 0.03162 µM", "result": 0.25}, {"measurement": "relative viability", "setting": "NCI-H2009; first compound 0.1 µM", "result": 0.22}, {"measurement": "relative viability", "setting": "NCI-H2009; first compound 0.3162 µM", "result": 0.177}, {"measurement": "relative viability", "setting": "NCI-H2009; first compound 1 µM", "result": 0.158}, {"measurement": "relative viability", "setting": "NCI-H522; first compound 0.01 µM", "result": 0.887}, {"measurement": "relative viability", "setting": "NCI-H522; first compound 0.03162 µM", "result": 1.25}, {"measurement": "relative viability", "setting": "NCI-H522; first compound 0.1 µM", "result": 0.831}, {"measurement": "relative viability", "setting": "NCI-H522; first compound 0.3162 µM", "result": 0.948}, {"measurement": "relative viability", "setting": "NCI-H522; first compound 1 µM", "result": 0.977}, {"measurement": "relative viability", "setting": "NCI-H2342; first compound 0.01 µM", "result": 0.539}, {"measurement": "relative viability", "setting": "NCI-H2342; first compound 0.03162 µM", "result": 0.502}, {"measurement": "relative viability", "setting": "NCI-H2342; first compound 0.1 µM", "result": 0.537}, {"measurement": "relative viability", "setting": "NCI-H2342; first compound 0.3162 µM", "result": 0.529}, {"measurement": "relative viability", "setting": "NCI-H2342; first compound 1 µM", "result": 0.508}, {"measurement": "relative viability", "setting": "NCI-H460; first compound 0.01 µM", "result": 0.178}, {"measurement": "relative viability", "setting": "NCI-H460; first compound 0.03162 µM", "result": 0.18}, {"measurement": "relative viability", "setting": "NCI-H460; first compound 0.1 µM", "result": 0.198}, {"measurement": "relative viability", "setting": "NCI-H460; first compound 0.3162 µM", "result": 0.215}, {"measurement": "relative viability", "setting": "NCI-H460; first compound 1 µM", "result": 0.135}, {"measurement": "relative viability", "setting": "HCC-78; first compound 0.01 µM", "result": 0.493}, {"measurement": "relative viability", "setting": "HCC-78; first compound 0.03162 µM", "result": 0.482}, {"measurement": "relative viability", "setting": "HCC-78; first compound 0.1 µM", "result": 0.437}, {"measurement": "relative viability", "setting": "HCC-78; first compound 0.3162 µM", "result": 0.5}, {"measurement": "relative viability", "setting": "HCC-78; first compound 1 µM", "result": 0.446}, {"measurement": "relative viability", "setting": "NCI-H661; first compound 0.01 µM", "result": 0.417}, {"measurement": "relative viability", "setting": "NCI-H661; first compound 0.03162 µM", "result": 0.41}, {"measurement": "relative viability", "setting": "NCI-H661; first compound 0.1 µM", "result": 0.375}, {"measurement": "relative viability", "setting": "NCI-H661; first compound 0.3162 µM", "result": 0.416}, {"measurement": "relative viability", "setting": "NCI-H661; first compound 1 µM", "result": 0.398}, {"measurement": "relative viability", "setting": "NCI-H1648; first compound 0.03162 µM", "result": 0.261}, {"measurement": "relative viability", "setting": "NCI-H1648; first compound 0.1 µM", "result": 0.273}, {"measurement": "relative viability", "setting": "NCI-H1648; first compound 0.3162 µM", "result": 0.284}, {"measurement": "relative viability", "setting": "NCI-H1648; first compound 1 µM", "result": 0.292}]}]}
